Legend:
Type in all cases: in vivo, Wistar rats
[1] = tested on: nitric oxide synthase (NOS); assay: Nitric oxide synthase activity in brain regions, radiometric [3H]L-citrulline method; conditions: 3 x 20 mg/kg intramuscularly
Protocol: (§1) After the above experiments the rat brains were isolated and immediately placed in the ice cold 0.9% solution of sodium chloride. After cooling the following structures were isolated from the brain: cerebral cortex, hippocampus, mesencephalon, striatum, brainstem, hypothalamus and cerebellum. The isolated tissue was homogenized in a Potter S homogenizer for 3 minutes at 1500 rpm in 4-5 volumes of 20 mM HEPES (pH 7.5) at 4° C. The supernatants were centrifuged for 30 minutes at 11000 g at 4° C., and aliquots of the obtained supernatants were taken for determining nitrates and nitrites (NOx-), while the remaining part was mixed with cooled 20 mM of HEPES (pH 7.5), containing 0.5 mM ethylenediamine tetraacetate (EDTA), 1 mM dithiotreitol (DDT), 1 mM phenylmethylsulfonyl fluoride (PMSF), aprotinine and leupeptine at a concentration of 5 μg/ml, this mixture being used for determining nitric oxide synthase (NOS) activity.
The activity of nitric oxide synthase (NOS) was determined using a radiometric method by the rate of L-citrulline accumulation in a reaction of [^3H] L-arginine oxidation catalyzed by NOS (Bredt M., Snyder S. Nitric oxide mediates glutamate-linked enhancement of cGMP levels in the cerebellum. Proc. Natl. Acad. Sci., USA, 1989, V.86, p.9030-9033). The formation of L-citrulline in this reaction is equivalent to a biosynthesis of nitric oxide.
The reaction was initiated by adding brain supernatant in the reaction medium containing 2 μCi/ml of [3H] L-arginine, 20 mM HEPES (pH 7.4), 0.2 mM CaCl2, 5 μM FAD, 5 μM FMN, 1 mM NADPH, 50 μM of BH4. After 15-60 minutes of incubation at 37° C. a suspension of Dowex 50WX8-400 (Na^+-form), which sorbs unreacted [^3H]L-arginine, but not [^3H] L-citrulline was added to the samples. After the sorption the radioactivity of the samples was determined on a scintillation counter SL-4000 (“Intertechnique”). The activity of Ca^2+-dependent and Ca^2+-independent NOS isoforms was determined by the difference of rates of [^3H]L-citrulline formation in three parallel samples containing 2 mM EDTA (Ca^2+ chelator), 2 mM EDTA+2 mM L-NAME (inhibitor all NOS isoforms) or without inhibitors. The enzyme activity was expressed in rnol [^3H]L-citrulline acumulated per 1 minute on 1 mg of supernatant protein.
(§2) The content of protein in the samples was determined by the Bradford method (Bradford M. M. A rapid and sensitive method for quantitation of microgram quantities of protein using the principle of protein binding . Anal. Biochem., 1976, V. 72, p. 248-254) using Coumassi dye. The statistical analysis was performed using methods appropriate for respective experiments. The data are expressed as mean±standard error of mean.

[2] = tested on: physical dependence from morphine (morphine abstinence); assay: Morphine abstinence syndrome, signs scored in the open field test; conditions: Morphine − (morphine + compound); compound 3 x 20 mg/kg intramuscularly; one value for the three compounds
Protocol: Thirty six hours after the last injection selected motor and autonomice parameters which are specific symptoms of abstinence were monitored in the <<open field>> test (an arena with a diameter of 120 cm and wall height of 40 cm).
Med., 2002, V.29, p.1-6.). The observable signs were recorded quantitatively (if it was possible) with further assignment of an index to each sign (depending on the specific feature of the sign) and calculation of the sum of scores. The expression of the abstinence syndrome was presented as a sum of scores. The results were processed using nonparametric statistical analysis based on the Mann-Whitney test.

[3] = tested on: nitrites and nitrates (NOx-); assay: Measurement of nitrates/nitrites (NOx-) in brain regions after the morphine abstinence experiment; conditions: 3 x 20 mg/kg intramuscularly
Protocol: as §1
To estimate the intensity of metabolism of nitric oxide in rats, quantitative determination of stable metabolites of nitrogen oxide-nitrites and nitrates (NOx-) was performed using a fluorometric method by fluorescence of naphthotriazole, a product of reaction of 2,3- diaminonaphthalene (DAN) and nitrite in an acidic medium (Misko T. R., Schilling R. J., Salvemini D. et al. A fluorometric assay for the measurement of nitrite in biological samples. Anal. Biochem., 1993, V. 214, p.11-16) with modifications (Lei B., Adachi N., Nagaro T., Arai T. Measurement of total nitric oxide metabolite (NO (x) (-)) levels in vivo. Brain. Res. Protoc., 1999, V. 4, p. 415-419).
The supernatants of brain deproteinized at 100° C. were placed in a nitrite recovery system containing 0.125 unit/ml of nitrate reductase, 25 μM NADPH and 25 μM FAD prepared in 20 mM Tris-HCl buffer pH 7.6 and incubated for 30 minutes at 37° C. For oxidation of NADPH a lactate dehydrogenase (LDH)/pyruvate system was used. Then 316.0 μM DAN solution in 0.62 M HCl was added and the mixture was incubated for 10 minutes in dark. For stabilization of fluorescence of the formed naphthotriazole, 280 mM NaOH was added. The fluorescence intensity was measured using spectrofluorometer Hitachi F-3000 at a wavelength of excitation 365 nm and emission 405 nm. To calculate the concentration of NOx- in the brain a standard solution of sodium nitrate was used. The concentration of NOx- was expressed in nmol/mg of protein.
as §2

[4] = Groups Nos. 3-14, compound without morphine, one value for all 12 compounds
[5] = Morphine + compound, one value for the three compounds

Structure (SMILES)	Activity of NOS, hippocampus [1, 4]	Activity of NOS, hypothalamus [1, 4]	Activity of NOS, midbrain [1, 4]	Activity of NOS, striatum [1, 4]	Activity of NOS, hippocampus [1, 5]	Activity of NOS, hypothalamus [1, 5]	Activity of NOS, midbrain [1, 5]	Activity of NOS, striatum [1, 5]	Authentic differences (ξ-square criterion) in appearance of signs of abstinence: <<Wet dog>> shakes [2]	Authentic differences (ξ-square criterion) in appearance of signs of abstinence: Aggression [2]	Authentic differences (ξ-square criterion) in appearance of signs of abstinence: Convulsions [2]	Authentic differences (ξ-square criterion) in appearance of signs of abstinence: Diarrhea [2]	Authentic differences (ξ-square criterion) in appearance of signs of abstinence: Dyspnea [2]	Authentic differences (ξ-square criterion) in appearance of signs of abstinence: Forelimb jogging [2]	Authentic differences (ξ-square criterion) in appearance of signs of abstinence: Grit with teeth [2]	Authentic differences (ξ-square criterion) in appearance of signs of abstinence: Mastication [2]	Authentic differences (ξ-square criterion) in appearance of signs of abstinence: Piloerection [2]	Authentic differences (ξ-square criterion) in appearance of signs of abstinence: Ptosis [2]	Authentic differences (ξ-square criterion) in appearance of signs of abstinence: Rhinorrhea [2]	Authentic differences (ξ-square criterion) in appearance of signs of abstinence: Squeak when touched [2]	other results
Nc1cccc2c(=O)n([C@@H]3O[C@H](CO)[C@@H](O)[C@H]3O)[nH]c(=O)c12.[Na] [Compound 10, sodium salt of 5-amino-2-(β-D-ribofuranosile)benzo[d]-3H-pyridazine-1,4-dione]	3.09 ± 0.16 nmol/min/mg of protein	5.45 ± 0.24 nmol/min/mg of protein	2.60 ± 0.29 nmol/min/mg of protein	1.26 ± 0.08 nmol/min/mg of protein	2.51 ± 0.19 nmol/min/mg of protein	5.36 ± 0.33 nmol/min/mg of protein	1.99 ± 0.29 nmol/min/mg of protein	1.29 ± 0.09 nmol/min/mg of protein	0.7562	0.8456	0.7546	0.0032	0.0834	0.8217	0.8652	0.1032	0.2567	0.0320	0.4032	0.1342	Nitrites, brainstem [3, 4]: 6.31 ± 0.58 nmol/mg of protein; Nitrites, cerebellum [3, 4]: 6.66 ± 0.63 nmol/mg of protein; Nitrites, cerebral cortex [3, 4]: 4.31 ± 0.37 nmol/mg of protein; Nitrites, hippocampus [3, 4]: 6.47 ± 0.72 nmol/mg of protein; Nitrites, hypothalamus [3, 4]: 6.77 ± 0.83 nmol/mg of protein; Nitrites, midbrain [3, 4]: 6.65 ± 0.70 nmol/mg of protein; Nitrites, striatum [3, 4]: 6.11 ± 0.29 nmol/mg of protein; Nitrites, brainstem [3, 5]: 6.99 ± 0.82 nmol/mg of protein; Nitrites, cerebellum [3, 5]: 5.85 ± 0.47 nmol/mg of protein; Nitrites, cerebral cortex [3, 5]: 4.93 ± 0.39 nmol/mg of protein; Nitrites, hippocampus [3, 5]: 5.24 ± 0.49 nmol/mg of protein; Nitrites, hypothalamus [3, 5]: 6.91 ± 0.58 nmol/mg of protein; Nitrites, midbrain [3, 5]: 5.75 ± 0.39 nmol/mg of protein; Nitrites, striatum [3, 5]: 3.57 ± 0.42 nmol/mg of protein
Nc1ccc2c(=O)n([C@@H]3O[C@H](CO)[C@@H](O)[C@H]3O)[nH]c(=O)c2c1.[Na] [Compound 11, sodium salt of 6-amino-2-(β-D-ribofuranosile)benzo[d]-3H-pyridazine-1,4-dione]	3.09 ± 0.16 nmol/min/mg of protein	5.45 ± 0.24 nmol/min/mg of protein	2.60 ± 0.29 nmol/min/mg of protein	1.26 ± 0.08 nmol/min/mg of protein	2.51 ± 0.19 nmol/min/mg of protein	5.36 ± 0.33 nmol/min/mg of protein	1.99 ± 0.29 nmol/min/mg of protein	1.29 ± 0.09 nmol/min/mg of protein	0.7562	0.8456	0.7546	0.0032	0.0834	0.8217	0.8652	0.1032	0.2567	0.0320	0.4032	0.1342	Nitrites, brainstem [3, 4]: 6.31 ± 0.58 nmol/mg of protein; Nitrites, cerebellum [3, 4]: 6.66 ± 0.63 nmol/mg of protein; Nitrites, cerebral cortex [3, 4]: 4.31 ± 0.37 nmol/mg of protein; Nitrites, hippocampus [3, 4]: 6.47 ± 0.72 nmol/mg of protein; Nitrites, hypothalamus [3, 4]: 6.77 ± 0.83 nmol/mg of protein; Nitrites, midbrain [3, 4]: 6.65 ± 0.70 nmol/mg of protein; Nitrites, striatum [3, 4]: 6.11 ± 0.29 nmol/mg of protein; Nitrites, brainstem [3, 5]: 6.99 ± 0.82 nmol/mg of protein; Nitrites, cerebellum [3, 5]: 5.85 ± 0.47 nmol/mg of protein; Nitrites, cerebral cortex [3, 5]: 4.93 ± 0.39 nmol/mg of protein; Nitrites, hippocampus [3, 5]: 5.24 ± 0.49 nmol/mg of protein; Nitrites, hypothalamus [3, 5]: 6.91 ± 0.58 nmol/mg of protein; Nitrites, midbrain [3, 5]: 5.75 ± 0.39 nmol/mg of protein; Nitrites, striatum [3, 5]: 3.57 ± 0.42 nmol/mg of protein
